The values that follow come from article PMC6627850, “Identification of Plasmodium falciparum Mitochondrial Malate: Quinone Oxidoreductase Inhibitors from the Pathogen Box” (Genes, 2019).

One data set deals with recombinant PfMQO (Plasmodium falciparum, UniProt C6KT09). Description: biochemical. The settings on record: for inhibition at 10 µM: read-out: Inhibition (%) against recombinant PfMQO; for IC50: serial dilution 10 to 0.0003 μM, quadruplicate, ± standard deviation.
The next data set deals with P. falciparum 3D7 strain. Description: Plasmodium falciparum growth inhibition assay (diaphorase-coupled LDH assay, 72 hours). The class given is cell-based. The note with it: for Growth inhibition of parasite cells (result in words): P. falciparum 3D7, LDH assay; for IC50: Plasmodium falciparum, read-out: IC50 growth of P. falciparum 3D7 strain in culture (ABS). The procedure:
Human RBCs were received from Japanese Red Cross Society. The experiments were performed under the guidelines of the ethical committee in The University of Tokyo (permission no. 10050) and Nagasaki University (permission no. 19). Parasite culture was synchronized with 5% (w/v) D-sorbitol as previously described. Ring stage parasites (100 μL/well) were placed in a 96-well plate at 0.3% parasitemia. […] As a control, wells containing culture medium and RBCs alone were prepared. […] The absorbance of each well was measured at 655 nm using SpectraMax Paradigm® Multi-Mode microplate reader (Molecular Devices, San Jose, CA, USA).

Another data set deals with ABS parasites. Also noted: method as in PMID 28674055. The settings on record: read-out: IC50 against the ABS parasites, previous study; cited from earlier work.
The next data set relates to HepG2. Also noted: method as in earlier work. The settings on record: ref https://www.mmv.org/mmv-open/pathogen-box/about-pathogen-box#composition; cited from earlier work.
The test system of data set [1] is stage IV gametocyte cells. Also noted: method as in PMID 28674055. The settings on record: cited from earlier work.
The next data set has as its system Cryptococcus neoformans. The settings on record: recently reported; cited from earlier work.
For another data set, the system named is Candida albicans. The settings on record: recently reported; cited from earlier work.
The mark [2] stands for this setting: read-out: IC50 against recombinant PfMQO.
Setting [3] is: 10 μM compound, average of 4 independent experiments.
[4] abbreviates: 3D7, LDH assay, 72 hours incubation, average of three independent experiments ± SD.

Molecules are shown by their SMILES. “And” between values parts separate entries of the source, which are not always exact repeats. Equal entries are not always repeated. Where two headings read alike, the source gives them in different places. A value given as a limit tells only on which side of the number the result lay.

Chain of recombinant PfMQO (C6KT09 entry or part of it): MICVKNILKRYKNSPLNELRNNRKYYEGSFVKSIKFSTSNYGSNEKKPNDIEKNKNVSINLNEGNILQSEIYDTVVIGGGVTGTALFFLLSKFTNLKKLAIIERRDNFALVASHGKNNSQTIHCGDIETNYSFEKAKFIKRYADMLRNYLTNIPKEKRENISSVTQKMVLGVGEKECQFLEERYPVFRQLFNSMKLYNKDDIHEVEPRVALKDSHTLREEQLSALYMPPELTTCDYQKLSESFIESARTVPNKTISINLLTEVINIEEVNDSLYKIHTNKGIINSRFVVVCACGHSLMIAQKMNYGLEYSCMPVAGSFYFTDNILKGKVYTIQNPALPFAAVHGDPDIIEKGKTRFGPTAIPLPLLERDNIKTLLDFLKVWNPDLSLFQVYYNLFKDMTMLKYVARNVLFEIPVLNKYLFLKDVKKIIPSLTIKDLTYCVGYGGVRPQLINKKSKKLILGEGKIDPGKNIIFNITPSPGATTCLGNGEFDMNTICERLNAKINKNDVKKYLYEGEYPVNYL

Consider `Cc1cc(C)cc(COc2ccc3c(C)c(CCC(=O)O)c(=O)oc3c2C)c1` [MMV676476], for which the inhibition at 10 µM on recombinant PfMQO is 63.2%. In addition, the IC50 on recombinant PfMQO (setting [2]) is < 5 µM and 3.57 µM. Moreover, the “Growth inhibition of parasite cells (result in words)” value (shortened to “Growth inhibition of parasite cells”) in the data set on P. falciparum 3D7 strain is given as “failed to inhibit the growth”.

As to `O=C(Nc1nnc(S)s1)c1cc(Br)ccc1Cl` [MMV676492], at recombinant PfMQO (setting [3]), the inhibition at 10 µM came out at 98.5%. Besides, on recombinant PfMQO (setting [2]), the IC50 was < 5 µM and 0.343 µM. In the data set on P. falciparum 3D7 strain, the “Growth inhibition of parasite cells” value is “failed to inhibit the growth”.

`O=C(NCCc1c[nH]c2ccccc12)c1cc2ccccc2oc1=O` [MMV676539]: on recombinant PfMQO, the inhibition at 10 µM is 65.6%. The IC50 at recombinant PfMQO (setting [2]) was < 5 µM and 4.06 µM. Besides, the “Growth inhibition of parasite cells” value in the data set on P. falciparum 3D7 strain was “failed to inhibit the growth”.

Regarding `N=C(N)Nc1ccc(-c2ccc(-c3ccc(NC(=N)N)cc3Cl)o2)c(Cl)c1` [MMV688179], the inhibition at 10 µM at recombinant PfMQO (setting [3]) was 76%. The IC50 on recombinant PfMQO (setting [2]) was < 5 µM and 3.96 µM; in the data set on P. falciparum 3D7 strain (setting [4]), 0.46 µM; with ABS parasites, 0.59 µM. Further, in the data set with HepG2, the “HepG2 cytotoxicity CC20” value is given as 6.8 µM. The “Activity against the stage IV gametocyte cells” value in data set [1] is “active”.

Regarding `N=C(N)Nc1ccc(-c2ccc(-c3ccc(NC(=N)N)c(Cl)c3)o2)cc1Cl` [MMV688271], on recombinant PfMQO (setting [3]), the inhibition at 10 µM was 80.5%. The IC50 at recombinant PfMQO (setting [2]) was < 5 µM and 1.15 µM; in the data set on P. falciparum 3D7 strain (setting [4]) it was 1.03 µM; with ABS parasites it was 1.21 µM. In the data set on HepG2, the “HepG2 cytotoxicity CC20” value was 13.5 µM. In addition, the “Antifungal effect against Cryptococcus neoformans” value in the data set on Cryptococcus neoformans was “antifungal effect”. Besides, the “Antifungal effect against Candida albicans” value in the data set with Candida albicans is listed as “antifungal effect”.

`COc1ccc(C2=NN(C3CCCCCC3)C(=O)C3CC=CCC23)cc1OCCCCOc1ccc(-c2nn[nH]n2)cc1` (stereo not drawn) [MMV690027]: the inhibition at 10 µM at recombinant PfMQO came out at 98.2%. Besides, the IC50 in the data set with P. falciparum 3D7 strain (3D7, 72 h) was 16.2 µM.

For `COc1ccc(C2=NN(C3CCCCCC3)C(=O)C2(C)C)cc1OCCCCOc1ccc(-c2nnn[nH]2)cc1` [MMV690028], the IC50 was < 5 µM and 1.1 µM at recombinant PfMQO (IC50 against recombinant PfMQO); 6.05 µM in the data set with P. falciparum 3D7 strain (setting [4]). Further, the inhibition at 10 µM on recombinant PfMQO stood at 86.7%.

What is called inhibition is the relative decrease from the control value, in per cent. One may read the IC50 as the midpoint of a concentration-inhibition curve.
